Results on two compounds are retold here after ChEMBL document CHEMBL1135380, “Synthesis and structure-activity relationship of 2-(aminoalkyl)-2,3,3a,8-tetrahydrodibenzo[c,f]isoxazolo[2,3-a]azepine derivatives: a novel series of 5-HT(2A/2C) receptor antagonists. Part 1” (Bioorg Med Chem Lett, 2002).

The target of experiment [1] is 5-hydroxytryptamine receptor 7 (Homo sapiens, UniProt P34969). As to the kind of experiment: Binding affinity for human cloned 5-hydroxytryptamine 7 receptor.
Experiment [2] addresses T1, Alpha-1A adrenergic receptor (Homo sapiens, UniProt P35348).
T1 sequence (P35348 whole entry): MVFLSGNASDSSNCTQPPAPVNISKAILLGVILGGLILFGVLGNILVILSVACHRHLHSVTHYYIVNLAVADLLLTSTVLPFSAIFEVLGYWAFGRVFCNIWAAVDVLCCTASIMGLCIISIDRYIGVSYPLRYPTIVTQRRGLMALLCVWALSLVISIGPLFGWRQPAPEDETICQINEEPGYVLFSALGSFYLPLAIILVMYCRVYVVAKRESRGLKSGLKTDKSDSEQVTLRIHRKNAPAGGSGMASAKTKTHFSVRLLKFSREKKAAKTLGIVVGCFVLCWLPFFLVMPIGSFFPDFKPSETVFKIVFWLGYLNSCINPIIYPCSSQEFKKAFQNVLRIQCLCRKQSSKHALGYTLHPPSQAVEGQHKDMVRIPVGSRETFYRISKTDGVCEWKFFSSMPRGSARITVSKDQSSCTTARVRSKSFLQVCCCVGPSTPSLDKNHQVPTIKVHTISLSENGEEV
As to the kind of experiment: Binding affinity for human cloned Alpha-1A adrenergic receptor.

The target of the next experiment is Histamine H1 receptor (Homo sapiens, UniProt P35367). As to the kind of experiment: Binding affinity for human cloned Histamine H1 receptor expressed in CHO cells using [3H]pyrilamine as radioligand. In kind it is cell-based.
The target of experiment [3] is T2, 5-hydroxytryptamine receptor 1A (Homo sapiens, UniProt P08908).
T2 sequence (P08908 whole entry): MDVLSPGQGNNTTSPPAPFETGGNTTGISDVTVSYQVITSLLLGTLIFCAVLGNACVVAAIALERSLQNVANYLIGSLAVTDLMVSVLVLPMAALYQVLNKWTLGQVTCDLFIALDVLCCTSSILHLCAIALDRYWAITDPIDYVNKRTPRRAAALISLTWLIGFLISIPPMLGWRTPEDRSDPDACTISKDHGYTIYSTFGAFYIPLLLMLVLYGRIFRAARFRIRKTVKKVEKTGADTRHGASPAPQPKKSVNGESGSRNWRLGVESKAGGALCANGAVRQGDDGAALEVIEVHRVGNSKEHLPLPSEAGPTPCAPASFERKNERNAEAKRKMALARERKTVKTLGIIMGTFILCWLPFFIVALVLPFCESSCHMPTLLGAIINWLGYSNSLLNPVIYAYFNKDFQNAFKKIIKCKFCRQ
As to the kind of experiment: Binding affinity for human cloned 5-hydroxytryptamine 1A receptor.

Experiment [4] deals with 5-hydroxytryptamine receptor 2A (Homo sapiens, UniProt P28223). As to the kind of experiment: biochemical. In kind it is cell-based, L929.
Description: Binding affinity for human cloned 5-hydroxytryptamine 2A receptor expressed in L929 cells using [125I]R91150 as radioligand
Experiment [5] concerns the target Serotonin 3 (5-HT3) receptor. As to the kind of experiment: Binding affinity for human cloned 5-hydroxytryptamine 3 receptor. In kind it is protein-complex assay.
A further experiment deals with Rattus norvegicus. As to the kind of experiment: In vivo activity in mCPP challenge test were performed in male Wistar rats by subcutaneous administration. In kind it is functional.
The target in experiment [6] is 5-hydroxytryptamine receptor 1D (Homo sapiens, UniProt P28221). As to the kind of experiment: Binding affinity for human cloned 5-hydroxytryptamine 1D receptor.
The target in experiment [7] is T3, 5-hydroxytryptamine receptor 2C (Rattus norvegicus) (UniProt P08909).
T3 sequence (whole entry): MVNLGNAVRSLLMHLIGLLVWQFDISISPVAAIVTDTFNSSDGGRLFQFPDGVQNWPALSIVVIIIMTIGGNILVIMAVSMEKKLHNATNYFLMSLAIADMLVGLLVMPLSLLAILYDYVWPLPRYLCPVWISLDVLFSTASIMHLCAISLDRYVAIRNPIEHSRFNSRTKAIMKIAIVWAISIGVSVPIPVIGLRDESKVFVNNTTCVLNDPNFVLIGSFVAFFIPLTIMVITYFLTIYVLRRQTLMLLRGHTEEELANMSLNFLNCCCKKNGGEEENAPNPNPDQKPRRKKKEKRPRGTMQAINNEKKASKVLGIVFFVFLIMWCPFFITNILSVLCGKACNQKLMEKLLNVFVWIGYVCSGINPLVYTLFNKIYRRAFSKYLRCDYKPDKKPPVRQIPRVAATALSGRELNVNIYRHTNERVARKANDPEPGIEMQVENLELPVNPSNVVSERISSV
As to the kind of experiment: In vivo activity in rat mCPP challenge test following p.o. administration. In kind it is functional, organism-based.

For a further experiment, the target named is T4, D(4) dopamine receptor (Homo sapiens, UniProt P21917).
T4 sequence (P21917 whole entry): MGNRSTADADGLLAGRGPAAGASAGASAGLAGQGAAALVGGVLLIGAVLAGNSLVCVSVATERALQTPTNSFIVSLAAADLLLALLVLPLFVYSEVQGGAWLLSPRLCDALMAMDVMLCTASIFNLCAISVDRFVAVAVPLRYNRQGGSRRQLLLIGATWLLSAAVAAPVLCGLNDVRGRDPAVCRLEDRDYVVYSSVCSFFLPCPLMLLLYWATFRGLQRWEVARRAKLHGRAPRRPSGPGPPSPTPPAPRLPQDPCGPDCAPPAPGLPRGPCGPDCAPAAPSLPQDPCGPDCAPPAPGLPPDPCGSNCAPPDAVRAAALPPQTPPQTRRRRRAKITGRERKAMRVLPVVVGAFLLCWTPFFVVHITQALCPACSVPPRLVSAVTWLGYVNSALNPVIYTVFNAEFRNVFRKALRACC
As to the kind of experiment: Binding affinity for human cloned Dopamine receptor D4.

Experiment [8] concerns the target D(2) dopamine receptor (Homo sapiens, UniProt P14416). As to the kind of experiment: Binding affinity for human cloned Dopamine receptor D2L.
Experiment [9] has as its target T5, Alpha-2A adrenergic receptor (Homo sapiens, UniProt P08913).
T5 sequence (P08913 whole entry): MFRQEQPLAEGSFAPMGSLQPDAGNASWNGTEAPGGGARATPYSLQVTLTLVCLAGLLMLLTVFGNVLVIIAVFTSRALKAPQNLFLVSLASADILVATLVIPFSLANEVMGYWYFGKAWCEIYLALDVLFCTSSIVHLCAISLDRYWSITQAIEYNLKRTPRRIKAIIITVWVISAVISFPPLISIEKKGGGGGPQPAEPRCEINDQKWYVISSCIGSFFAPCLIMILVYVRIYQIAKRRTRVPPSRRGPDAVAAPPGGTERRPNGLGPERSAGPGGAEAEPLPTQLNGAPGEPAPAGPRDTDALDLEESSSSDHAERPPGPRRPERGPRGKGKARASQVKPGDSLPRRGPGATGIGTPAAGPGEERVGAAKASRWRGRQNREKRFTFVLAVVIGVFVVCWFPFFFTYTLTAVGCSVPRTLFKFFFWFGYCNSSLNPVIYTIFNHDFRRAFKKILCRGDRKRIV
As to the kind of experiment: Binding affinity for human cloned Alpha-2A adrenergic receptor.

Experiment [10] has as its target T6, 5-hydroxytryptamine receptor 2C (Homo sapiens, UniProt P28335).
T6 sequence (P28335 whole entry): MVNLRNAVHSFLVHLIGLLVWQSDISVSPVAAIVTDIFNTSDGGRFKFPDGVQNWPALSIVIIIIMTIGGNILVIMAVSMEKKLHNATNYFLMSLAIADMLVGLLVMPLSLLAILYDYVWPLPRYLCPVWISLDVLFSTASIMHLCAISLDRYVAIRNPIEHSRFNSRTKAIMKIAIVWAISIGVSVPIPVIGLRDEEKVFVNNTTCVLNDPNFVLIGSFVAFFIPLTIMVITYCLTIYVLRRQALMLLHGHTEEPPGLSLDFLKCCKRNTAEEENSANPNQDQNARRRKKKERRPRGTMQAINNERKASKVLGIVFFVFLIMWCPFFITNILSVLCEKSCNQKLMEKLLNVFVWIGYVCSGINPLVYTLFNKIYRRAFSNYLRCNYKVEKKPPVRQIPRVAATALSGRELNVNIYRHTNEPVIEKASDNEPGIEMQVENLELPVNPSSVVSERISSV
As to the kind of experiment: Binding affinity for human cloned 5-hydroxytryptamine 2C receptor expressed in CHO cells using [3H]mesulergine as radioligand. It counts as cell-based.

For experiment [11], the target named is T7, Alpha-2C adrenergic receptor (Homo sapiens, UniProt P18825).
T7 sequence (P18825 whole entry): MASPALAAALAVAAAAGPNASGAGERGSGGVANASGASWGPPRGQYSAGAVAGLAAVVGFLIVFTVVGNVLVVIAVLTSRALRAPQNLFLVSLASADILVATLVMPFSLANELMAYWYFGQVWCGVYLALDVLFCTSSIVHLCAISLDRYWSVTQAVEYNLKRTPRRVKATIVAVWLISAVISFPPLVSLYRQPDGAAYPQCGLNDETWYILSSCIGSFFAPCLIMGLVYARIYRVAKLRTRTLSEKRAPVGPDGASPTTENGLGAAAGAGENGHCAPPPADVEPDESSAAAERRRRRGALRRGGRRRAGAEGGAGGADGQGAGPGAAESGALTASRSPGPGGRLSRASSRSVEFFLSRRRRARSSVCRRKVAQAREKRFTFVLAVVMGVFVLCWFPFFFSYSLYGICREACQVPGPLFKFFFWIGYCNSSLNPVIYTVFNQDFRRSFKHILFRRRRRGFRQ
As to the kind of experiment: Binding affinity for human cloned Alpha-2C adrenergic receptor.

The target in the next experiment is D(3) dopamine receptor (Homo sapiens, UniProt P35462). As to the kind of experiment: Binding affinity for human cloned Dopamine receptor D3.
Experiment [12] deals with D(2) dopamine receptor (Rattus norvegicus, UniProt P61169). As to the kind of experiment: Binding affinity for rat Dopamine receptor D2.

A value given as a limit tells only on which side of the number the result lay.

What is called IC50 is the concentration needed to halve the response being measured. Higher therefore signals weaker potency. In general, pIC50 refers to the IC50 on a negative log10 scale, so that one unit is a factor of ten. As a reminder, the ED50 is the dose that gives a 50% effect, or the effect in half of the subjects.

Chain of 5-hydroxytryptamine receptor 2A (P28223 whole entry): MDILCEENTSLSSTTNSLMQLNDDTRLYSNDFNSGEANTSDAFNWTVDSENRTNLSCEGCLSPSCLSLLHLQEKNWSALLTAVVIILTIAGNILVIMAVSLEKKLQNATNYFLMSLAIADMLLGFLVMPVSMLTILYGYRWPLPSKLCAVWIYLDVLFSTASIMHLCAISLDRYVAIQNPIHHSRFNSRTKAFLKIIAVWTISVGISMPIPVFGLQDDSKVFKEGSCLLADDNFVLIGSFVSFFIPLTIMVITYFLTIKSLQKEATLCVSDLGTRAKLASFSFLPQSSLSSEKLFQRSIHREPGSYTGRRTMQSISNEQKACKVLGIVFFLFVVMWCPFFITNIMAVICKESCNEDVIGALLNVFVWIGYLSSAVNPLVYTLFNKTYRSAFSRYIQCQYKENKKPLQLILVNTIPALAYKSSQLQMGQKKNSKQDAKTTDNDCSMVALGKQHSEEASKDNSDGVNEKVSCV
Chain of 5-hydroxytryptamine receptor 1D (P28221 whole entry): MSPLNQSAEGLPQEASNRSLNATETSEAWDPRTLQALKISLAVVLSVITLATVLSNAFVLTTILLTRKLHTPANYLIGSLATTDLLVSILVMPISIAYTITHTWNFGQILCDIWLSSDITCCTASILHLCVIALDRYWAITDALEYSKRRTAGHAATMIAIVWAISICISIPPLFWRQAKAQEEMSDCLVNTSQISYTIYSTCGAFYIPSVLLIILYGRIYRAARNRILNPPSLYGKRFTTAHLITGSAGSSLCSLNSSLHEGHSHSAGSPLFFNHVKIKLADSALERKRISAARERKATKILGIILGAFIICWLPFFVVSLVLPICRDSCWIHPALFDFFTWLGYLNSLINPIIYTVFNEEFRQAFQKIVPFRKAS
Chain of D(2) dopamine receptor (Homo sapiens, UniProt P14416) (P14416 whole entry): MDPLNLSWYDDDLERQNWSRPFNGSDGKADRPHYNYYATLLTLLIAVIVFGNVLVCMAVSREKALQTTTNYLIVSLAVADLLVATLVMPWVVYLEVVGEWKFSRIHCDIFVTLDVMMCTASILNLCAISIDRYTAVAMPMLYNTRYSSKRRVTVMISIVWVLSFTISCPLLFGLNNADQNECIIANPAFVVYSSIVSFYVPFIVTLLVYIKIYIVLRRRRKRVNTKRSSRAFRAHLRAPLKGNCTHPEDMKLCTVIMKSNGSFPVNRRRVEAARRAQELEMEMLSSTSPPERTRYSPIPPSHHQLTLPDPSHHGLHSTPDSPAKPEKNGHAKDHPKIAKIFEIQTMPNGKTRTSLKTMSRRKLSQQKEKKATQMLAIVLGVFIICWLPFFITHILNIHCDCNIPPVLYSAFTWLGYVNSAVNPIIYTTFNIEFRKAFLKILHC
Chain of Histamine H1 receptor (P35367 whole entry): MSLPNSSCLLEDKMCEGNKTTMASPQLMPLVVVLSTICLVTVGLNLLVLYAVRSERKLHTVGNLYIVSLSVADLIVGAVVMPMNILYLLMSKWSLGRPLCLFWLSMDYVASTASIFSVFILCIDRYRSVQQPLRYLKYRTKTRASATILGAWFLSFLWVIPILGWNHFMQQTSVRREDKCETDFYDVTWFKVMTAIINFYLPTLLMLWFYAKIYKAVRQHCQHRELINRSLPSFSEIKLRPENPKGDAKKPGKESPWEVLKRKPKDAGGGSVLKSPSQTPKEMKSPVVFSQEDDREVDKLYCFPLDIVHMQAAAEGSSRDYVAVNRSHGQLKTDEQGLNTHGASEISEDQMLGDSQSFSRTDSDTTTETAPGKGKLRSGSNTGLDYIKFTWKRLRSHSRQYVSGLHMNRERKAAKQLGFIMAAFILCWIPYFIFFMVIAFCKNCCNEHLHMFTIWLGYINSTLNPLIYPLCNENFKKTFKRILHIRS
Chain of D(3) dopamine receptor (P35462 whole entry): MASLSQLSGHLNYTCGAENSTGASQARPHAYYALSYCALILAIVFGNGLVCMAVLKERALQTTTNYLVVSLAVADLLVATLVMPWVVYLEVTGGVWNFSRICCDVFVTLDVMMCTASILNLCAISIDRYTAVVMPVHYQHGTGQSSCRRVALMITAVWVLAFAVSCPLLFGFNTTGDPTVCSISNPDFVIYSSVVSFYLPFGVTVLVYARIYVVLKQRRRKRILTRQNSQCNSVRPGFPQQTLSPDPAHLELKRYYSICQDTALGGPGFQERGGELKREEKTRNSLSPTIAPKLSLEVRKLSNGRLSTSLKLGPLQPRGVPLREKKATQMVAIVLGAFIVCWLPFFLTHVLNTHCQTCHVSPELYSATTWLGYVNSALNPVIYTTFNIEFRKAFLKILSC
Chain of 5-hydroxytryptamine receptor 7 (P34969 whole entry): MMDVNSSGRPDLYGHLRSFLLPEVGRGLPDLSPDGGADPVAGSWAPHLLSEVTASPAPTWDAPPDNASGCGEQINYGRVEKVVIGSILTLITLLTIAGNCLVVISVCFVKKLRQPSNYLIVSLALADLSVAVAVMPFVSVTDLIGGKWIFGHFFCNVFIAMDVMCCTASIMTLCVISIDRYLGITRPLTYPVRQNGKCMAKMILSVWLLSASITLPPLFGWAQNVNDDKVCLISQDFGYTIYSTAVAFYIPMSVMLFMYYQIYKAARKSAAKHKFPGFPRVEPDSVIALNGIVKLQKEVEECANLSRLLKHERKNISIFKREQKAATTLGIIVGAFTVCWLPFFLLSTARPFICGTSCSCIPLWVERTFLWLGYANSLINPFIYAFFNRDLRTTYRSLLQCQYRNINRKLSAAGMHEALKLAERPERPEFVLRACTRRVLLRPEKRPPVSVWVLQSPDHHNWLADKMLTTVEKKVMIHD
Chain of D(2) dopamine receptor (Rattus norvegicus, UniProt P61169) (P61169 whole entry): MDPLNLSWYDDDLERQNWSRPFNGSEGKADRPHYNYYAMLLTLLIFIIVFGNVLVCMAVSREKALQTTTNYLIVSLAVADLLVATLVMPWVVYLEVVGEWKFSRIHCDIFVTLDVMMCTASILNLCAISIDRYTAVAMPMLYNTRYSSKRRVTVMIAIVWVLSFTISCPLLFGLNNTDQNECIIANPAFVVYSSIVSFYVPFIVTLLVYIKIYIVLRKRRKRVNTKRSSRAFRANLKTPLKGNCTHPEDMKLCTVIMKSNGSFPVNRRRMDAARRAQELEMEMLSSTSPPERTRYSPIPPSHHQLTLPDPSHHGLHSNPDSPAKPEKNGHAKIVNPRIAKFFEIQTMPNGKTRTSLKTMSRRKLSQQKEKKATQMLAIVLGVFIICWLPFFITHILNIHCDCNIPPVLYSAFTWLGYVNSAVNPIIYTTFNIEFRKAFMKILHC

`CNCC1CC2c3ccccc3Cc3ccccc3N2O1` (centres undefined): the half-inhibitory concentration (IC50) was 18.6 nM in [1]; 191 nM in experiment [2]; 10.7 nM at Histamine H1 receptor; above 1000 nM in experiment [3]; 13.2 nM in experiment [4]; above 1000 nM in experiment [6]. The IC50 was 302 nM on D(4) dopamine receptor; 1700 nM on D(2) dopamine receptor [8]; 437 nM in experiment [9]; 7.08 nM in [10]; above 1000 nM in [11]; 339 nM on D(3) dopamine receptor. The same compound came in with a pIC50 in experiment [5] below 6. Further, the ED50 with Rattus norvegicus (Rattus norvegicus, sc, read-out: ED50) is 0.16 mg/kg; in experiment [7], above 2.5 mg/kg.
As for `CN(C)CC1CC2c3ccccc3Cc3ccccc3N2O1` (stereo in doubt; 2a), the IC50 in experiment [2] is 537 nM; on D(2) dopamine receptor [12], 195 nM; at Histamine H1 receptor, 6.76 nM; in experiment [3], 977 nM; in experiment [4], 22.9 nM; in experiment [6] it was 661 nM. In addition, the half-maximal inhibitory concentration (IC50) on D(4) dopamine receptor is 132 nM; on D(2) dopamine receptor [8], 871 nM; in [9], 372 nM; in [10], 12.3 nM; in experiment [11], 1860 nM; at D(3) dopamine receptor it was 170 nM. In [5], the pIC50 worked out at 5.92. For the same compound, in the experiment with Rattus norvegicus, the 50% effective dose (ED50) is 0.04 mg/kg.
